In patent US9988680B2, “Non-natural nucleosides as theranostic agents” (Case Western Reserve University, priority 2011, dated 2018):

What was measured:
[1] = target: T1, terminal deoxynucleotidyl transferase (TdT) (Bos taurus, UniProt P06526); experiment: Incorporation of natural and non-natural nucleotides by TdT (polymerization assay, Michaelis-Menten kinetics); type: biochemical
Procedure: All enzymatic assays were performed as previously described. […] Reactions were quenched with 200 Mm EDTA at variable times (5-600 s) and analyzed using denaturing gel electrophoresis. Time courses in product formation were fitted using eq 1: Y=mt+b(1) (1)
where y is the amount of product, m is the rate of the reaction, t is time, and b is the Y-intercept. Km and Vmax values were determined by fits of the data points to the Michaelis-Menten equation: […]
where Vmax is the maximal rate of nucleotide incorporation, Km is the Michaelis constant for dNTP, and [dNTP] is the concentration of nucleotide substrate. The IC50 value for 3-Eth-5-NITP was obtained using a nonlinear regression curve fit of the data to eq 3:
The biological function of TdT is to expand immunological diversity by randomly incorporating dNTPs into single-stranded DNA during V(D)J recombination. […] TdT also utilizes nucleotide analogues including 2′,3′-dideoxynucleotides, dinucleoside 5′,5′-tetraphosphates, and intrinsically fluorescent nucleotide analogues. In this report, we tested if TdT also incorporates indolyl-2′-deoxyribose-5′-triphosphates that bear non-natural moieties such as ethynyl and nitro groups at the 3- and 5-position, respectively, of the indole base. […] Aliquots of the reaction were quenched with EDTA at variable time points, and the polymerization reactions were then subjected to denaturing polyacrylamide gel electrophoresis to separate extended primers from unreacted substrate.
Time courses in product formation were generated using pseudo-first order reaction conditions in which 6 units of TdT were incubated with 1.5 μM DNA substrate and mixed with variable concentrations of non-natural nucleotide (0.05-50 μM). Each time course was fit to an equation for a straight line to define the rate of nucleotide incorporation (data not shown).

[2] = target: T1, terminal deoxynucleotidyl transferase (TdT); experiment: as above; type: biochemical; settings: reaction times of up to 20 min

T1 sequence (P06526 whole entry): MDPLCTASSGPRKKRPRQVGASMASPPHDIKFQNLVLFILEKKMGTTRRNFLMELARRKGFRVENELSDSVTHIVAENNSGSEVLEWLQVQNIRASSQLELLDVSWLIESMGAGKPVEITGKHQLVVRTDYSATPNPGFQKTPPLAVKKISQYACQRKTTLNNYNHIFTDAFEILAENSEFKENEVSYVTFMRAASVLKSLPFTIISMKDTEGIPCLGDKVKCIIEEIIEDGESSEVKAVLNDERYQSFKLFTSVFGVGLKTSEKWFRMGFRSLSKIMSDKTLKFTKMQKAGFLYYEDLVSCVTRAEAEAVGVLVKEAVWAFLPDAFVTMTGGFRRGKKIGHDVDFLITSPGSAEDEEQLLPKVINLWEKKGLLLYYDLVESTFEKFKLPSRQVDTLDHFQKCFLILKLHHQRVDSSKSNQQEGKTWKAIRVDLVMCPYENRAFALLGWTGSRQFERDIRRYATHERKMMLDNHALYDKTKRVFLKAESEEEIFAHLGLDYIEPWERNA

extension by TdT beyond the incorporated nucleotide ([1]; 100 μM nucleotide, 14-mer DNA, gel (FIG. 2B)): poorly extended
Vmax ([1]; incorporation by TdT, 6 units TdT, 1.5 μM single-stranded DNA substrate): 3.2 ± 0.1 nM/s
catalytic efficiency higher than that for 5-NITP ([1]; relative to 5-NITP): 7 fold
decrease in Vmax ([1]; relative to 5-NITP): 3.5 fold
extension by TdT beyond the incorporated nucleotide at longer reaction times [2]: not observed
SMILES: C#Cc1cn(C2CC(O)C(COP(=O)(O)OP(=O)(O)OP(=O)(O)O)O2)c2ccc([N+](=O)[O-])cc12 (stereo not drawn) [3-Eth-5-NITP, 3-ethynyl-5-nitroindolyl-2′-deoxyribose-5′-triphosphate]
utilization by TdT (elongation of 14-mer DNA substrate) ([1]; 100 μM nucleotide, 6 units TdT, 1.5 μM 14-mer (FIG. 2B)): utilized by TdT as efficiently as the natural purines
